Laboratory results reported in patent US10654833B2, “ASK1 isoindolin-1-one inhibitors and methods of use thereof” (Hepatikos Therapeutics, LLC, priority 2018, dated 2020).

Legend:
[1] = molecular target: recombinant human ASK1 protein (Homo sapiens (Human), UniProt Q99683); assay: ASK1 kinase activity inhibition assay (radiometric 33P incorporation into MBP); assay type: biochemical; settings: 20 μM MBP, 10 μM 33P-ATP
Outline: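 Compound (1% DMSO final) was preincubated for 20 min at room temperature with recombinant human ASK1 and 20 μM MBP in HEPES pH 7.5 buffer. Reactions started with 10 μM 33P-ATP and ran for 2 h at room temperature. 33P incorporation into MBP was measured by P81 filter binding.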

[2] = molecular target: human OATP1B1 transporter (Homo sapiens (Human), UniProt Q9Y6L6); assay: Transporter mediated cellular uptake, OATP1B1-expressing HEK293; assay type: in vitro ADME; settings: HEK293 stably expressing human OATP1B1, 37° C., 0.5 minutes
human OATP1B1 transporter, sequence (Q9Y6L6 whole entry): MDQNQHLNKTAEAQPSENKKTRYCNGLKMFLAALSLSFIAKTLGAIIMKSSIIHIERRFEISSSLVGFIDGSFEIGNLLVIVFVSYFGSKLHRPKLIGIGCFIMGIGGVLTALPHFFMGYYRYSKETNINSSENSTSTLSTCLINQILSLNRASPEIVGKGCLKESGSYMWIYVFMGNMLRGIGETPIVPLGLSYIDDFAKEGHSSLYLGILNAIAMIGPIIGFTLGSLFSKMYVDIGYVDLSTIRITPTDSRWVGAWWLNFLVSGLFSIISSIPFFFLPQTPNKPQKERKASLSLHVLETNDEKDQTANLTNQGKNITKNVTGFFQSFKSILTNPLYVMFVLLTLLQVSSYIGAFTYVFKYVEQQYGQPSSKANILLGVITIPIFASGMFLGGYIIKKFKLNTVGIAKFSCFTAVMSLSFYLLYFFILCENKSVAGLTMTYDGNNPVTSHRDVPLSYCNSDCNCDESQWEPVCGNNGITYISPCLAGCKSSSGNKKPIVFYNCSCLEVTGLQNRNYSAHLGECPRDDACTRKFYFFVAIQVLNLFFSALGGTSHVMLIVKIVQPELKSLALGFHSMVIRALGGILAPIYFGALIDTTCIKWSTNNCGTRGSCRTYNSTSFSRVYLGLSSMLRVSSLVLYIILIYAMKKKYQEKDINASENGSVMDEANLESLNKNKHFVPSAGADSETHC
Method: (§1) Transporter Mediated Cellular Uptake
(§2) To determine transporter mediated cellular uptake of compounds, HEK293 stably expressing either human OATP1B1 or human OATP1B3 transporter, or mock transfected cells were cultured at 37° C. in an atmosphere of 95:5 air:CO2 DMEM/F12 medium containing 10% FBS, 100 unit/mL penicillin-G and 100 μg/mL streptomycin. Transporter expressing cell culture medium also contained 500 μg/mL G418 disulfate solution. Cells were plated onto 24-well poly-D-lysine coated culture plates at the density 5×10^5 cells/well 24 hours prior to uptake assay. Compound stock solutions were made at 1000× final concentration in 100% DMSO. Final compound solutions were prepared by diluting stock solutions into HBSS buffer (pH 7.4) On the day of the uptake assay cell culture media was removed and cells were washed twice with 300 μL of HBSS buffer (pH 7.4). Cellular uptake of compound into the cells was measured by adding 300 μL of final compound solutions in HBSS and incubating them at 37° C. for 0.5 minutes (OATP1B1) or 5 minutes (OATP1B3). Reactions were quenched by removing the buffer containing the TA and the cells were washed twice with 300 μL of HBSS buffer. Cells were lysed by adding 300 μL of MeOH:H2O (2:1) and incubated for 20 minutes at 4° C. The amount of compound in the cell lysate was determined by LC-MS/MS. The amount of protein in each well was quantified using the BCA kit for protein determination and used to normalize compound uptake (Sigma-Aldrich, St Louis, Mo., USA). • Uptake of the probe substrate in control cells provided background activity values for all data points. • Incubation with probe substrate (solvent only) provided 100% activity values. • A reference positive control was used for each transporter

[3] = molecular target: human OATP1B3 transporter (Homo sapiens (Human), UniProt Q9NPD5); assay: Transporter mediated cellular uptake, OATP1B3-expressing HEK293; assay type: in vitro ADME; settings: HEK293 stably expressing human OATP1B3, 37° C., 5 minutes
human OATP1B3 transporter, sequence (Q9NPD5 whole entry): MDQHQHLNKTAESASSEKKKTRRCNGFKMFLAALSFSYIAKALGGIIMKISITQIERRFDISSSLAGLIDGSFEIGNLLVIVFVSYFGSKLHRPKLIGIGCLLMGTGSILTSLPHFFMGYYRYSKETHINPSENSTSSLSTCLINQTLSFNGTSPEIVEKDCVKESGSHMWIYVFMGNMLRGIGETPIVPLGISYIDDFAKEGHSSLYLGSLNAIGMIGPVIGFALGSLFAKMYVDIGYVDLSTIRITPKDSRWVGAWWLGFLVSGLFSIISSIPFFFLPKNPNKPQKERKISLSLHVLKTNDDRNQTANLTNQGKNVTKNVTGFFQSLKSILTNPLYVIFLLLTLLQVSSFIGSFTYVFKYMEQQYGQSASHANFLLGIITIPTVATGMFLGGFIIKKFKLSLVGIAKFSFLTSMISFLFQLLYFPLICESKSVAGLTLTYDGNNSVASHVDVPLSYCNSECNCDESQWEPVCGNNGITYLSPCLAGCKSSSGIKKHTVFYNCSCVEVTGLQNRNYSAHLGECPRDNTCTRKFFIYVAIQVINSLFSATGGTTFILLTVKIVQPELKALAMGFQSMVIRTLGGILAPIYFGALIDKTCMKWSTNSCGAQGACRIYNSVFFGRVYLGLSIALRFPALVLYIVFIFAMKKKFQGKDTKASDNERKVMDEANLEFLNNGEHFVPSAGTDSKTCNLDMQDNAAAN
Method: as §1, §2

[4] = molecular target: ASK1 kinase active site (Homo sapiens (Human), UniProt Q99683); assay: ASK1 kinase active site binding assay (KINOMEscan); settings: 11-point 3-fold dilution series
ASK1 kinase active site, sequence (Q99683 whole entry): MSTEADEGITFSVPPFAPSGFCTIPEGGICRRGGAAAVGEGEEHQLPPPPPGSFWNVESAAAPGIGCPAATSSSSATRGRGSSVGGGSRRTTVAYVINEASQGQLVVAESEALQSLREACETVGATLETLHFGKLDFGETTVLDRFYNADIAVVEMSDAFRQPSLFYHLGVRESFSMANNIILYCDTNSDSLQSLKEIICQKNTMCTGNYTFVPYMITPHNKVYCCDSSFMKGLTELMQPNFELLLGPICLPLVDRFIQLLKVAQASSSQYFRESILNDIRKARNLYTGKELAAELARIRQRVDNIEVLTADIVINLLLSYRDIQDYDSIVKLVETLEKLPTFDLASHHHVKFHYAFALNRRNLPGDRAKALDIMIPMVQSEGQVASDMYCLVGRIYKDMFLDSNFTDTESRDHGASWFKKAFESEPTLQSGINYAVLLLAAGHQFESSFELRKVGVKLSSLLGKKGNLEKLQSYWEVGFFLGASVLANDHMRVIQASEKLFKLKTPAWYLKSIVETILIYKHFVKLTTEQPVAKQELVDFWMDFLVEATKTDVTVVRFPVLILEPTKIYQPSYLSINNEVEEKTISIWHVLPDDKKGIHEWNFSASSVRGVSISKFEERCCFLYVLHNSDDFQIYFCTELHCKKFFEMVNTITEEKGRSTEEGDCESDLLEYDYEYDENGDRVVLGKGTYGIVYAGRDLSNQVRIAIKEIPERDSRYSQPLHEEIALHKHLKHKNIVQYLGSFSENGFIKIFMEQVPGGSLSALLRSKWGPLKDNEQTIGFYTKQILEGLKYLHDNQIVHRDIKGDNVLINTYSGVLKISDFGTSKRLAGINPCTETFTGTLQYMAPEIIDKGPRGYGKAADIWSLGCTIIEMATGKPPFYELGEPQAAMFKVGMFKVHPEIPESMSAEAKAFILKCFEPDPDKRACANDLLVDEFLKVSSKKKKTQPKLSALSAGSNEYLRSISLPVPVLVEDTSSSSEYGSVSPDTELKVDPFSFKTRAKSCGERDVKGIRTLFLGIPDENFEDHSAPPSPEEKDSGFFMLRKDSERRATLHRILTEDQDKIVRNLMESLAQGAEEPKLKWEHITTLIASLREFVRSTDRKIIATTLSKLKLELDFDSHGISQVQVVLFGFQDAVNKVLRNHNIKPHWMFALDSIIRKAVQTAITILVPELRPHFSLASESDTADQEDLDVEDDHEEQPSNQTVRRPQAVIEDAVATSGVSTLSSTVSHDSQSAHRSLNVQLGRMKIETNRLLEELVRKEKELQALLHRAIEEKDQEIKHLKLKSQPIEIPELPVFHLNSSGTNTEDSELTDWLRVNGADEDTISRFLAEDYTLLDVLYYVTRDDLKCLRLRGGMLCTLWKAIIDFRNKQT
Method: ASK1 Kinase Active Site Binding Assay
Compound binding to the ASK1 kinase active site was determined using the KINOMEscan Assay platform (DiscoverX, San Diego, Calif.). Briefly, ASK1-tagged T7 phage strains were prepared in an E. coli host derived from the BL21 strain. E. coli were grown to log-phase and infected with T7 phage and incubated with shaking at 32° C. until lysis. The lysates were centrifuged and filtered to remove cell debris. The remaining kinases were produced in HEK-293 cells and subsequently tagged with DNA for qPCR detection. Streptavidin-coated magnetic beads were treated with biotinylated small molecule ligands for 30 minutes at room temperature to generate affinity resins for kinase assays. The liganded beads were blocked with excess biotin and washed with blocking buffer (SeaBlock (Pierce), 1% BSA, 0.05% Tween 20, 1 mM DTT) to remove unbound ligand and to reduce nonspecific binding. Binding reactions were assembled by combining kinases, liganded affinity beads, and test compounds in 1× binding buffer (20% SeaBlock, 0.17×PBS, 0.05% Tween 20, 6 mM DTT). Test compounds were prepared as 111× stocks in 100% DMSO. Kds were determined using an 11-point 3-fold compound dilution series with three DMSO control points. […] The kinase concentration in the eluates was measured by qPCR. Binding constants (Kds) were calculated with a standard dose-response curve using the Hill equation. […]

recombinant human ASK1 protein, sequence (Q99683 whole entry): as above

IC50 ([1]; Table 3) | OATP1B1 Uptake (Percent of no transporter control cell) [2] | OATP1B3 Uptake (Percent of no transporter control cell) [3] | Kd [4] | IC50 ([1]; Table 2) | SMILES
0.7 nM | 221% | 632% |  |  | CC(C)n1cnnc1-c1cccc(N2Cc3ccc(-c4cccc(C(C)(C)C(=O)O)c4)cc3C2=O)n1 [Compound 102, 2-(3-(2-(6-(4-Isopropyl-4H-1,2,4-triazol-3-yl)pyridin-2-yl)-3-oxoisoindolin-5-yl)phenyl)-2-methylpropanoic Acid]
5.2 nM | 753% | 399% | 0.75 nM | 5.2 nM | CC(C)n1cnnc1-c1cccc(N2Cc3ccc(-c4cccc(C(=O)O)c4)cc3C2=O)n1 [Compound 1, 3-(2-(6-(4-isopropyl-4H-1,2,4-triazol-3-yl)pyridin-2-yl)-3-oxoisoindolin-5-yl)benzoic acid]
 | 175% | 316% | 0.86 nM | 3.3 nM | CC(C)n1cnnc1-c1cccc(N2Cc3ccc(-c4ccc(C(C)(C)C(=O)O)cc4)cc3C2=O)n1 [Compound 39, 2-(4-(2-(6-(4-isopropyl-4H-1,2,4-triazol-3-yl)pyridin-2-yl)-3-oxoisoindolin-5-yl)phenyl)-2-methylpropanoic acid]
